In a compilation of properties of binary mixtures (doi:10.1021/acs.jced.0c00588):

Experiment: xn = mol fraction of the nth substance listed
Details: 102 kPa

`O=C(O)C(F)(F)C(F)(F)C(F)(F)C(F)(F)F` + CC[n+]1ccn(C)c1.[Cl-] gave a viscosity (293.15 K, x2 = 0.3346) of 35.2 mPa·s, a viscosity (293.15 K, x2 = 0.5026) of 92.1 mPa·s and a viscosity (298.15 K, x2 = 0.3346) of 29 mPa·s. It also gave a viscosity (298.15 K, x2 = 0.5026) of 72.1 mPa·s, a viscosity (298.15 K, x2 = 0.6636) of 213.4 mPa·s and a viscosity (303.15 K, x2 = 0.5026) of 57.4 mPa·s. It also gave a viscosity (303.15 K, x2 = 0.6636) of 158.1 mPa·s, a viscosity (308.15 K, x2 = 0.3346) of 20.4 mPa·s and a viscosity (308.15 K, x2 = 0.5026) of 46.4 mPa·s. It also gave a viscosity (308.15 K, x2 = 0.6636) of 119.8 mPa·s, a viscosity (313.15 K, x2 = 0.5026) of 38.2 mPa·s and a viscosity (313.15 K, x2 = 0.6636) of 92.7 mPa·s. It also gave a viscosity (318.15 K, x2 = 0.3346) of 14.99 mPa·s, a viscosity (318.15 K, x2 = 0.6636) of 73 mPa·s and a viscosity (323.15 K, x2 = 0.3346) of 13.02 mPa·s. For the same compound, the viscosity (323.15 K, x2 = 0.6636) was 58.4 mPa·s, the viscosity (328.15 K, x2 = 0.3346) was 11.4 mPa·s and the viscosity (328.15 K, x2 = 0.5026) was 22.58 mPa·s. The viscosity (328.15 K, x2 = 0.6636) was 47.5 mPa·s, the viscosity (333.15 K, x2 = 0.3346) was 10.04 mPa·s and the viscosity (338.15 K, x2 = 0.6636) was 32.6 mPa·s. The viscosity (343.15 K, x2 = 0.3346) was 7.94 mPa·s, the viscosity (343.15 K, x2 = 0.5026) was 14.53 mPa·s and the viscosity (343.15 K, x2 = 0.6636) was 27.5 mPa·s. The viscosity (348.15 K, x2 = 0.3346) was 7.13 mPa·s, the viscosity (348.15 K, x2 = 0.6636) was 23.56 mPa·s and the viscosity (353.15 K, x2 = 0.5026) was 11.25 mPa·s. The viscosity (353.15 K, x2 = 0.6636) was 20.29 mPa·s.
